# Measurements from patent publication US11035856B1 (priority 2007, dated 2021).
# Where “and” joins values, the source holds several entries; their conditions need not be identical. Equal entries are not always repeated. Where two headings read alike, the source gives them in different places.
# What was measured:
# cyanobacteria [1] = format: cell-based
# cyanobacteria [2] = format: cell-based; remark: listed apart in the source
compound,measurement,setting,value
Triton X-100 [reference compound],Microcystin concentration determined by the assay,cyanobacteria [1],2.92 ppb and 2.52 ppb and 2.55 ppb
O=[N+]([O-])[O-].[Ag+] [Silver nitrate],effectiveness as a lytic agent,cyanobacteria [2],as effective as silver sulfate as a lytic agent
"O=S(=O)([O-])[O-].O=S(=O)([O-])[O-].O=S(=O)([O-])[O-].[Al+3].[Al+3] [Al2(SO4)3, reference compound]",Microcystin concentration determined by the assay,cyanobacteria [1]; 100 ppm,0.45 ppb
"CCCCCCCCCCCCOS(=O)(=O)[O-].[Na+] [SDS, reference compound]",Microcystin concentration determined by the assay,cyanobacteria [1]; 0.1%,14.13 ppb
"O=S(=O)([O-])[O-].[Cu+2] [CuSO4, copper sulfate]",Microcystin concentration determined by the assay,cyanobacteria [1]; 10 ppm,2.40 ppb
same,Microcystin concentration determined by the assay,cyanobacteria [1]; 100 ppm,2.31 ppb
same,Microcystin concentration determined by the assay,cyanobacteria [1]; 1000 ppm,7.25 ppb and 5.17 ppb
same,Microcystin concentration determined by the assay,cyanobacteria [1]; 1000 ppm for 10 min,4.28 ppb
same,Microcystin concentration determined by the assay,cyanobacteria [1]; 1000 ppm for 20 min,4.96 ppb
same,Microcystin concentration determined by the assay,cyanobacteria [1]; 1000 ppm for 30 min,5.64 ppb
same,Microcystin concentration determined by the assay,cyanobacteria [1]; 5000 ppm,4.79 ppb
